Data on 3 compounds can be found in US20080119498A1, “Therapeutic Agent for Pruritus Comprising P38 Map Kinase Inhibitor as the Active Ingredient” (priority 2004, published 2008).

For test [1], the system named is platelet activating factor-induced eye scratching behavior. The test is described as follows: Ocular pruritus inhibition activity to platelet activating factor-induced models. The conditions noted are these: for Eye scratching behavior inhibition ratio / Number of eye scratching times: male Hartley guinea pigs, 10 μl per eye; for Eye scratching behavior inhibition ratio: 30 minutes after instillation of 0.1% platelet activating factor, versus control; for Number of eye scratching times: average for 30 minutes after instillation of 0.1% platelet activating factor, control 7.1. The class given is in vivo, guinea pig. On the procedure: (§1) Eye scratching behavior inhibition ratio (%)=100−(number of eye scratching times for test compound)/(number of eye scratching times for control)×100
Platelet activating factor-induced ocular pruritus evaluation models were prepared in accordance with the published method of Kato et al. (J. Ocul. Pharmacol. Ther. 2003; 19: 315-324). Compound C was dissolved in ultrapure water at a concentration of 0.01% or 0.1% (w/v), and each of the resulting solutions was instilled into both eyes of 5-week-old male Hartley guinea pigs in an amount of 10 μl per eye. At 15 minutes thereafter, each solution of Compound C of the same concentration was instilled again (twice in total). As a control, ultrapure water was used.
After 15 minutes from the second instillation of the solution of Compound C, a physiological saline solution in which a platelet activating factor was dissolved at 0.1% (w/v) was instilled into both eyes of the above guinea pigs in an amount of 10 μl per eye to induce eye scratching behavior.
The behavior of the guinea pigs after the instillation of the platelet activating factor was videotaped, and the ocular pruritus was evaluated for each eye by counting the number of times of a series of behaviors of scratching the eye with the hind paws. In Table 2, the average of the number of eye scratching times for 30 minutes after the instillation of the platelet activating factor and the average of the eye scratching behavior inhibition ratio are shown. Each group consisted of 8 eyes.

Test [2] deals with histamine-induced eye scratching behavior. The test is described as follows: Ocular pruritus inhibition activity to histamine-induced models. The class given is in vivo, guinea pig. The conditions noted are these: for number of eye scratching times in comparison with the control (in words): histamine-induced guinea pig model, instilled at 0.1%; for Eye scratching behavior inhibition ratio / Number of eye scratching times: male Hartley guinea pigs, 0.1% (w/v) instilled twice, 10 μl per eye; for Eye scratching behavior inhibition ratio: 30 minutes after instillation of 1.0% histamine, versus control; for Number of eye scratching times: average for 30 minutes after instillation of 1.0% histamine, control 6.1. The protocol:
Compound A was dissolved in a 5.0% Tween 80/physiological saline solution at a concentration of 0.1% (w/v), and Compound B was suspended in a 5.0% Tween 80/physiological saline solution at a concentration of 0.1% (w/v), whereby the respective test compound solutions were prepared.
Each test compound solution was instilled into both eyes of 5-week-old male Hartley guinea pigs in an amount of 10 μl per eye. At 15 minutes thereafter, each test compound solution of the same concentration was instilled again (twice in total). As a control, a 5.0% Tween 80/physiological saline solution was used.
After 15 minutes from the second instillation of each test compound solution, a physiological saline solution in which histamine was dissolved at 1.0% (w/v) was instilled into both eyes of the above guinea pigs in an amount of 10 μl per eye to induce eye scratching behavior.
The behavior of the guinea pigs after the instillation of histamine was videotaped, and the ocular pruritus was evaluated for each eye by counting the number of times of a series of behaviors of scratching the eye with the hind paws. In Table 1, the average of the number of eye scratching times for 30 minutes after the instillation of histamine and the average of the eye scratching behavior inhibition ratio are shown. Each group consisted of 8 eyes.
as §1

The structures appear in SMILES notation.

On to `C[S+]([O-])c1ccc(-c2nc(-c3ccc(F)cc3)c(-c3ccncc3)[nH]2)cc1.Cl` (centres unmarked) [Compound C, 4-(4-fluorophenyl)-2-(4-methylsulfinylphenyl)-5-(4-pyridyl)-1H-imidazole hydrochloride], for which, in test [1] (0.01% (w/v) instilled twice), the “Eye scratching behavior inhibition ratio” value worked out at 87.3% and the “Number of eye scratching times” value is given as 0.9 times. For the same compound, in test [1] (0.1% (w/v) instilled twice), the “Eye scratching behavior inhibition ratio” value was 85.9% and the “Number of eye scratching times” value was found to be 1.0 times. Further, the “number of eye scratching times in comparison with the control (in words)” value in test [1] (platelet activating factor-induced guinea pig model, instilled at 0.01% or 0.1%) is reported as “significantly decreased”.
In the case of `COc1nccc(-c2c(-c3ccc(F)cc3)ncn2[C@H]2CC[C@H](O)CC2)n1` [Compound B, trans-4-[4-(4-fluorophenyl)-5-(2-methoxy-4-pyrimidinyl)-1H-imidazole-1-yl]cyclohexanol], in test [2], the “number of eye scratching times in comparison with the control (in words)” value is recorded as “significantly decreased”, the “Eye scratching behavior inhibition ratio” value came out at 36.1% and the “Number of eye scratching times” value amounted to 3.9 times.
The corresponding values for `Cl.Oc1ccc(-c2nc(-c3ccc(F)cc3)c(-c3ccncc3)[nH]2)cc1` [Compound A, 4-(4-fluorophenyl)-2-(4-hydroxyphenyl)-5-(4-pyridyl)-1H-imidazole hydrochloride] are “significantly decreased”, 77.0% and 1.4 times.
